From PubChem BioAssay (NCI)
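Five compound concentrations were applied to cells in 96-well plates for 48 hours; endpoints were derived by simple linear interpolation of the resulting dose-response curve. At the GI50, growth is halved. TGI: total growth inhibition.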

Key:
Assay in all cases: NCI-60 cell line screen, 48 h
A498 renal = test system: A498 renal
HCT-15 colon = test system: HCT-15 colon
HOP-62 NSCLC = test system: HOP-62 NSCLC
HT29 colon = test system: HT29 colon
LXFL 529 NSCLC = test system: LXFL 529 NSCLC
M14 melanoma = test system: M14 melanoma
NCI-H460 lung = test system: NCI-H460 lung
COLO 205 colon = test system: COLO 205 colon
LOX IMVI melanoma = test system: LOX IMVI melanoma

Row | SMILES | TGI (A498 renal) [µM] | TGI (HCT-15 colon) [µM] | TGI (HOP-62 NSCLC) [µM] | TGI (HT29 colon) [µM] | TGI (LXFL 529 NSCLC) [µM] | TGI (M14 melanoma) [µM] | TGI (NCI-H460 lung) [µM] | GI50 (A498 renal) [µM] | GI50 (COLO 205 colon) [µM] | TGI (COLO 205 colon) [µM] | GI50 (HCT-15 colon) [µM] | GI50 (HOP-62 NSCLC) [µM] | GI50 (HT29 colon) [µM] | GI50 (LOX IMVI melanoma) [µM] | TGI (LOX IMVI melanoma) [µM] | GI50 (M14 melanoma) [µM] | GI50 (NCI-H460 lung) [µM]
1 | CCCC/C=C1\CCC(C)(CN(C)C)C1=O (stereo not drawn) | > 100 | > 100 | > 100 | > 100 | > 100 | > 100 | > 100 |  |  |  |  |  |  |  |  |  | 
2 | COc1cc(-n2cc(-c3ccc(Cl)cc3)nc2SCc2cccc(C#N)c2)cc(OC)c1OC | > 100 | > 100 | > 100 | > 100 |  | > 100 | > 100 | 33.3 | > 100 | > 100 | > 100 | 39.2 | 54.1 | > 100 | > 100 | > 100 | 95.5
3 | FC(F)(F)c1ccc(C#Cc2ccccc2C#Cc2ccccc2)cc1 | 83.4 | > 100 | > 100 | > 100 |  | > 100 | > 100 | 29.3 | 34.3 | > 100 | 35.1 | 52.5 | 42.6 | 26.2 | 55.3 | 44.3 | 41.1
4 | COc1ccc(/C=C(\C#N)n2nnc3ccccc32)cc1 | 0.779 | > 100 | 25.8 | > 100 |  | 2.02 | 7.88 | 0.188 | 0.0849 | 1.31 | 0.0682 | 0.486 | 0.0453 | 0.548 | 6.72 | 0.071 | 0.322
5 | O=c1[nH]c(=O)c2cc(C3CC(O)C(CO)O3)ccc2[nH]1 (stereo not drawn) | > 100 | > 100 | > 100 | > 100 |  | > 100 | > 100 | > 100 | > 100 | > 100 | 93.3 | > 100 | > 100 | > 100 | > 100 | > 100 | > 100
6 | O=C1C2C(c3ccccc3)NC(c3ccccc3)C1C(c1ccccc1)NC2c1ccccc1 (stereo not drawn) | > 100 | > 100 | > 100 | > 100 |  | > 100 | > 100 |  |  | > 100 |  |  |  |  | > 100 |  | 
7 | C=C1C(=O)O[C@H]2[C@H](OC(C)=O)[C@@H](C)CCC/C(C)=C/CC[C@@]3(C)O[C@@H]3C[C@@H]12 | 8.76 | 10.1 | 43.6 | 8.05 |  | > 40.4 | 19.7 |  |  | 16.5 |  |  |  |  | 3.9 |  | 
8 | O=c1oc2cc(N=Cc3ccc4c(c3)OCO4)ccc2c2ccccc12 | > 100 | > 100 | > 100 | > 100 |  | > 100 | > 100 |  |  | > 100 |  |  |  |  | > 100 |  | 
9 | Cc1ccc2nc(-c3ccccc3)c(N=O)n2c1 | > 100 | > 100 | > 100 | > 100 |  | > 100 | > 100 |  |  | > 100 |  |  |  |  | > 100 |  | 
